One data set relates to HL-60 cells. Put plainly: CellTiter-Glo Luminescent Cell Viability Assay, HL-60 cells. Format: cell-based, human. As to conditions: HL-60, 96 hours, 100 μM down to 10 nM, FIG. 6c. The text has this: FIGS. 6a-6d depict the results of in vitro assays of the conjugate against four cell lines. FIG. 6A is a chart depicting the results of the conjugate against MCF-7 cells, cells derived from a human breast cancer cell line. FIG. 6B is a chart depicting the results of the conjugate against SK-BR-3 cells, cells derived from a human breast adenocarcinoma cell line. FIG. 6C is a chart depicting the results of the conjugate against HL-60 cells, cells derived from a human promyelocytic leukemia cell line. FIG. 6D is a chart depicting the results of the conjugate against SK-N-MC cells, cells derived from a human brain neuroblastoma (neuroepithelioma) cell line. […]
(§1) After 96 hours, the effects of doxorubicin and B12-S-doxorubicin on cell viability were determined using an assay from Promega. The CellTiter-Glo™ Luminescent Cell Viability Assay quantitates the ATP present in a culture, which correlates with metabolically active cells. Luminescence, which is dependent on ATP concentration, was measured for each individual well on a Wallac MicroBeta® JET Liquid Scintillation and Luminescence Counter. The average luminescence value of the three wells containing medium alone was subtracted from the raw data values to give corrected values. […] The three corrected values for wells dosed with the same concentration of compound were averaged and the standard deviation calculated. […]
(In general: Cellular ATP, detected with luciferase, serves as a proxy for viable cell number.)

For the next data set, the system named is SK-N-MC cells. Put plainly: CellTiter-Glo Luminescent Cell Viability Assay, SK-N-MC cells. Format: cell-based, human. As to conditions: 96 hours, 100 μM down to 10 nM.
Excerpt: FIG. 8 is a chart depicting the results of an in vitro assay of the stable conjugate against SK-N-MC cells, cells derived from a human brain neuroblastoma (neuroepithelioma) cell line. The assay employed is the CellTiter-Glo™ Luminescent Cell Viability Assay from Promega Corporation, which is recognized in the art as being predictive of the effect of a compound on cell viability. FIG. 8 depicts the results of the assay conducted according to Example 9. The method described by Promega Corporation (Technical Bulletin No. 288) was followed with no exceptions.
(§2) Doxorubicin and CobalaRubicin-200 stocks and stock solutions, prepared in 5% DMSO in water, were stored at −20° C. and protected from light. […]
as §1, with “Percent cell viability was calculated by considering” for “The three corrected values for wells dosed with”, “untreated cells as 100% viable.” for “same concentration of compound were averaged and the standard deviation calculated.”

Data set [1] concerns normal murine lymph node cells. The data set is described as follows: CellTiter-Glo Luminescent Cell Viability Assay, normal murine lymph node cells. Format: cell-based. As to conditions: 96 hours, FIG. 7.
Excerpt: FIG. 7 is a chart depicting the results of an in vitro assay of the conjugate against normal murine lymph node cells. The assay employed is the CellTiter-Glo™ Luminescent Cell Viability Assay from Promega Corporation, which is recognized in the art as being predictive of the effect of a compound on cell viability. The assay is detailed in Example 8. The method described by Promega Corporation (Technical Bulletin No. 288) was followed with no exceptions.
as §2
as §1, with “calculated. Percent cell viability was calculated by considering the untreated cells as 100% viable.” for “calculated.”

Data set [2] in a line: systemic toxicity / MTD of free doxorubicin versus conjugate on a molar basis (separate study). In kind it is in vivo, mice.

In the case of `COc1cccc2c1C(=O)c1c(O)c3c(c(O)c1C2=O)C[C@@](O)(C(=O)CO)C[C@@H]3O[C@H]1C[C@H](NC(=O)OCc2ccc(NC(=O)[C@H](CCCCN)NC(=O)[C@H](Cc3ccccc3)NC(=O)CCCCCNC(=O)OC[C@H]3O[C@H](n4cnc5cc(C)c(C)cc54)[C@H](O)[C@@H]3OP(=O)(O)O[C@H](C)CNC(=O)CC[C@@]3(C)C4=C(C)C5=NC(=CC6=NC(=C(C)C7=N[C@@](C)([C@H](N4)[C@@H]3CC(N)=O)[C@@](C)(CC(N)=O)[C@@H]7CCC(N)=O)[C@@](C)(CC(N)=O)[C@@H]6CCC(N)=O)C(C)(C)[C@@H]5CCC(N)=O)cc2)[C@H](O)[C@H](C)O1` [conjugate 13, B12-5′-OCONH(CH2)5CO-Phe-Lys-PABC-Dox], the “cell viability versus free doxorubicin” value in the data set on HL-60 cells is “same effectiveness as doxorubicin and is slightly less potent than doxorubicin”; in data set [1] it was “as effective as doxorubicin but shows slightly less potency than doxorubicin”. Also, the “cell viability / cytotoxicity” value in the data set on SK-N-MC cells (FIG. 6d and FIG. 8) is “very efficacious”; in the data set on SK-N-MC cells (FIG. 6d and FIG. 8, listed as CobalaRubicin 200), “same effectiveness as doxorubicin and is slightly less potent than doxorubicin”. In data set [2] (free doxorubicin at the same high molar dose as the conjugate), the “lethality at the same high molar dose” value is “not by the doxorubicin conjugate”. Besides, the “dose higher than that of free doxorubicin on a molar basis, still with less systemic toxicity” value in data set [2] (molar basis) is recorded as “at least 2.3 time”.

The record behind these values is patent US7232805B2, “Cobalamin conjugates for anti-tumor therapy” (Inflabloc Pharmaceuticals, Inc., priority 2003, dated 2007).
